Experimental data reported in patent US4005076A, “Hydrazones of 3-formylrifamycin SV” (Gruppo Lepetit S.p.A., priority 1971, dated 1977).
In brackets after ≈: the same amount, converted by molar mass.

How the values were obtained:
[1] = biological target: T1, mouse embryo RNA-polymerase I (ME-RNA-P1) (Mus musculus, UniProt O35134+P70700); test: effect on mouse embryo RNA-polymerase I; format: biochemical; details: Single Stranded Calf-Thymus DNA; for remaining activity at 10 µg: 10μg, read-out: % Control Activity of ME-RNA-P1 at 10μg; for remaining activity at 100 µg: 100μg, read-out: % Control Activity of ME-RNA-P1 at 100μg
T1 construct: mouse embryo RNA-polymerase I (ME-RNA-P1); endogenous in cells; host or cells: mouse embryo cells
Description: (§1) Calf-Thymus DNA. Me-RNA-P1 and ME-RNA-P2 : Single Stranded

[2] = tested on: mouse embryo DNA-polymerase I (ME-DNA-P1); test: effect on mouse embryo DNA-polymerase I; format: biochemical; details: activated Calf-Thymus DNA
Description: (§2) Oligo dT.Poly rA. ME-DNA-P1 and ME-DNA-p2 : activated

[3] = biological target: T2, sarcoma virus DNA-polymerases (SSV-DNA-P) (Woolly monkey sarcoma virus, UniProt P03359); test: effect on activity of SSV-polymerase; format: biochemical; details: template Oligo dT.Poly rA
T2 construct: sarcoma virus DNA-polymerases (SSV-DNA-P)
T2 sequence (P03359 642-1310): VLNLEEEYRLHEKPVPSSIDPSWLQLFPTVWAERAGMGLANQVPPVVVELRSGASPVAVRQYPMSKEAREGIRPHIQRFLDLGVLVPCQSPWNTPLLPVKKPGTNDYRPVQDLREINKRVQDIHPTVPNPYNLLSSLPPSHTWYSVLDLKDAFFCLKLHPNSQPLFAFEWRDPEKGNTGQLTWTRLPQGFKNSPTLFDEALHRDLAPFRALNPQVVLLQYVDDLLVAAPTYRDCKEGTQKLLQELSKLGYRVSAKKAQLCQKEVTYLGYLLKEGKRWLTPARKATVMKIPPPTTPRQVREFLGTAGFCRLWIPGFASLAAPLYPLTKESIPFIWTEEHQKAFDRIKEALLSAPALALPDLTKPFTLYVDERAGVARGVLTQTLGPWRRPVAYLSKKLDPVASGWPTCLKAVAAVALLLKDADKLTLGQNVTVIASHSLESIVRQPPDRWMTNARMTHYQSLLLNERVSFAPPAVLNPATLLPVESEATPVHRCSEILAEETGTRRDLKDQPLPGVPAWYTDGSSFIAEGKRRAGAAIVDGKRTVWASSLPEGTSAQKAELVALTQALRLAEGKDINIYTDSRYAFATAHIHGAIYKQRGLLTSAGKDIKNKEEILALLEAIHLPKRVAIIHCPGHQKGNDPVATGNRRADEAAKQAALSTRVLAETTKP
Description: Templates used in the Enzymatic Assays were the following: SSV-DNA-P: […]

[4] = biological target: T3, mouse embryo RNA-polymerase II (ME-RNA-P2) (Mus musculus, UniProt P08775+Q8CFI7); test: effect on mouse embryo RNA-polymerase II; format: biochemical; details: Single Stranded Calf-Thymus DNA; for remaining activity at 10 µg: 10μg, read-out: % Control Activity of ME-RNA-P2 at 10μg; for remaining activity at 100 µg: 100μg, read-out: % Control Activity of ME-RNA-P2 at 100μg
T3 construct: mouse embryo RNA-polymerase II (ME-RNA-P2); endogenous in cells; host or cells: mouse embryo cells
Description: as §1

[5] = tested on: mouse embryo DNA-polymerase II (ME-DNA-P2); test: effect on mouse embryo DNA-polymerase II; format: biochemical; details: activated Calf-Thymus DNA
Description: as §2

[6] = tested on: Staphylococcus aureus strain which is resistant to rifampicin (Staph. aureus Tour); test: in vitro minimal inhibitory concentration against rifampicin-resistant Staphylococcus aureus strain; format: cell-based; details: Staphylococcus aureus, read-out: Minimal inhibitory concentration
Protocol: In particular, compounds illustrative of the invention at concentrations of about 10 to 20 μg/ml or less inhibit the growth of a Staph. aureus Tour strain resistant to rifampicin.
One of the most important characteristics of the new hydrazones is their activity against rifampicin-resistant Staphylococcus aureus strains. Rifampicin, that is 3-(4-methyl-1-piperazinyl)iminomethylrifamycin SV, disclosed in U.S. Pat. No. 3,342,810, is the most known and widely used rifamycin derivative in therapeutic practice.
The data of the new compounds are compared with those of representative hydrazones disclosed in U.S. Pat. No. 3,342,810.

For CO[C@H]1/C=C/O[C@@]2(C)Oc3c(C)c(O)c4c(O)c(cc(O)c4c3C2=O)NC(=O)/C(C)=C\C=C\[C@H](C)[C@H](O)[C@@H](C)[C@@H](O)[C@@H](C)[C@H](OC(C)=O)[C@@H]1C [rifamycin SV], the remaining activity at 10 µg [1] was 84%, the remaining activity at 100 µg [1] was 106% and the “% Control Activity of ME-DNA-P1 at 5μg” value ([2]; 5μg) was 91%. The “% Control Activity of ME-DNA-P1 at 10μg” value [2] was 95%, the “% Control Activity of ME-DNA-P1 at 100μg” value [2] was 105% and the “% Control Activity of SSV-DNA-P at 5μg” value [3] was 105%. The “% Control Activity of SSV-DNA-P at 10μg” value [3] was 75%, the “% Control Activity of SSV-DNA-P at 100μg” value [3] was 61% and the remaining activity at 5 µg ([4]; 5μg, read-out: % Control Activity of ME-RNA-P2 at 5μg) was 89%. The remaining activity at 10 µg [4] was 87%, the remaining activity at 100 µg [4] was 82% and the “% Control Activity of ME-DNA-P2 at 5μg” value ([5]; 5μg) was 94%. For the same compound, the “% Control Activity of ME-DNA-P2 at 10μg” value [5] was 100% and the “% Control Activity of ME-DNA-P2 at 100μg” value [5] was 72%.
COC1C=COC2(C)Oc3c(C)c(O)c4c(O)c(c(C=NN(C)Cc5ccc(-c6ccccc6)cc5)c(O)c4c3C2=O)NC(=O)C(C)=CC=CC(C)C(O)C(C)C(O)C(C)C(OC(C)=O)C1C (stereo not shown) [Example 42] gave an MIC [6] of 5 µg/mL (≈ 5.43 µM).
COC1C=COC2(C)Oc3c(C)c(O)c4c(O)c(c(C=NNc5ccc(C(=O)O)cc5)c(O)c4c3C2=O)NC(=O)C(C)=CC=CC(C)C(O)C(C)C(O)C(C)C(OC(C)=O)C1C (stereo not shown) [p-Carboxyphenylhydrazone of 3-formylrifamycin SV] gave an MIC [6] of over 100 µg/mL.
COC1C=COC2(C)Oc3c(C)c(O)c4c(O)c(c(C=NNc5cccc([N+](=O)[O-])c5)c(O)c4c3C2=O)NC(=O)C(C)=CC=CC(C)C(O)C(C)C(O)C(C)C(OC(C)=O)C1C (stereo not shown) [Example 36] gave an MIC [6] of 50 µg/mL (≈ 58.1 µM).
For CCCCCN(CCCCC)N=Cc1c2c(O)c3c(O)c(C)c4c(c3c1O)C(=O)C(C)(OC=CC(OC)C(C)C(OC(C)=O)C(C)C(O)C(C)C(O)C(C)C=CC=C(C)C(=O)N2)O4 (stereo not shown) [Example 46], the MIC [6] was 1 µg/mL (≈ 1.14 µM).
COC1C=COC2(C)Oc3c(C)c(O)c4c(O)c(c(C=NNC5CCCC5)c(O)c4c3C2=O)NC(=O)C(C)=CC=CC(C)C(O)C(C)C(O)C(C)C(OC(C)=O)C1C (stereo not shown) [Example 1] gave an MIC [6] of 20 µg/mL (≈ 24.8 µM).
COC1C=COC2(C)Oc3c(C)c(O)c4c(O)c(c(C=NNc5ccccc5[N+](=O)[O-])c(O)c4c3C2=O)NC(=O)C(C)=CC=CC(C)C(O)C(C)C(O)C(C)C(OC(C)=O)C1C (stereo not shown) [Example 35] showed an MIC [6] of 20 µg/mL (≈ 23.2 µM).
Compound COC1C=COC2(C)Oc3c(C)c(O)c4c(O)c(c(C=NNC5CCCCC5)c(O)c4c3C2=O)NC(=O)C(C)=CC=CC(C)C(O)C(C)C(O)C(C)C(OC(C)=O)C1C (stereo not shown) [Example 2] has an MIC [6] of 20 µg/mL (≈ 24.3 µM).
COC1C=COC2(C)Oc3c(C)c(O)c4c(O)c(c(C=NNc5cccc(C(F)(F)F)c5)c(O)c4c3C2=O)NC(=O)C(C)=CC=CC(C)C(O)C(C)C(O)C(C)C(OC(C)=O)C1C (stereo not shown) [Example 43, 3-Formylrifamycin SV: hydrazone of ((3-trifluoromethyl)-phenyl) hydrazine] gave an MIC [6] of 10 µg/mL (≈ 11.3 µM).
In the case of COC1C=COC2(C)Oc3c(C)c(O)c4c(O)c(c(C=NNc5ccc(F)cc5)c(O)c4c3C2=O)NC(=O)C(C)=CC=CC(C)C(O)C(C)C(O)C(C)C(OC(C)=O)C1C (stereo not shown) [Example 37], the MIC [6] is reported as 50 µg/mL (≈ 60 µM).
COC1C=COC2(C)Oc3c(C)c(O)c4c(O)c(c(C=NNc5cccc(C)c5)c(O)c4c3C2=O)NC(=O)C(C)=CC=CC(C)C(O)C(C)C(O)C(C)C(OC(C)=O)C1C (stereo not shown) [Example 26] gave an MIC [6] of 20 µg/mL (≈ 24.1 µM).
COC1C=COC2(C)Oc3c(C)c(O)c4c(c3C2=O)C2(C=C(NC(=O)C(C)=CC=CC(C)C(O)C(C)C(O)C(C)C(OC(C)=O)C1C)C4=O)OCC(=O)O2 (stereo not shown) [rifamycin O] was tested, and the remaining activity at 10 µg [1] was 77%, the remaining activity at 100 µg [1] was 75% and the “% Control Activity of ME-DNA-P1 at 10μg” value [2] was 92%. For the same compound, the “% Control Activity of ME-DNA-P1 at 100μg” value [2] was 65%, the “% Control Activity of SSV-DNA-P at 5μg” value [3] was 100% and the “% Control Activity of SSV-DNA-P at 10μg” value [3] was 98%. The “% Control Activity of SSV-DNA-P at 100μg” value [3] was 83%, the remaining activity at 10 µg [4] was 93% and the remaining activity at 100 µg [4] was 65%. For the same compound, the “% Control Activity of ME-DNA-P2 at 10μg” value [5] was 97% and the “% Control Activity of ME-DNA-P2 at 100μg” value [5] was 5%.
In the case of COC1C=COC2(C)Oc3c(C)c(O)c4c(O)c(c(C=NNc5ccnc6c(C(F)(F)F)cccc56)c(O)c4c3C2=O)NC(=O)C(C)=CC=CC(C)C(O)C(C)C(O)C(C)C(OC(C)=O)C1C (stereo not shown) [Example 22], the MIC [6] is reported as 50 µg/mL (≈ 53.5 µM).
Compound COC1C=COC2(C)Oc3c(C)c(O)c4c(O)c(c(C=NNc5c(C)cc(C(C)(C)C)cc5C)c(O)c4c3C2=O)NC(=O)C(C)=CC=CC(C)C(O)C(C)C(O)C(C)C(OC(C)=O)C1C (stereo not shown) [Example 41] has an MIC [6] of 20 µg/mL (≈ 22.2 µM).
